The subject of one assay is Cavia porcellus. Briefly: Compound was evaluated in vivo for inhibition of U 46619 induced increase in tracheal pressure of guinea pig. The assay is classed as functional. As to conditions: Trachea, read-out: ID50 (the source's name).
For the next assay, the species on record is Homo sapiens. Briefly: Compound was evaluated for anti-platelet activity by measuring its inhibitory effect on human platelet rich plasma (PRP) aggregated with U-46,619. In kind it is functional.
Assay [1] addresses Thromboxane A2 receptor (Cavia porcellus). Briefly: Antagonistic activity against TP-receptor by inhibition of U 46619-induced contraction of isolated guinea pig trachea. Conditions: read-out: pA2 (converted).

The values below come from ChEMBL document CHEMBL1151592, “Synthesis of new 3,4-disubstituted pyrrolidines as thromboxane A2/prostaglandin H2 (TP) receptor antagonists” (Bioorg Med Chem Lett, 1996).

Usually IC50 stands for the concentration that inhibits the measured activity by half. High values mean lower potency, low ones higher potency.

For the molecule `O=C(O)CC/C=C\C[C@@H]1CN(S(=O)(=O)c2cccc3ccccc23)C[C@@H]1c1ccccc1O`, the ED50 in the assay with Cavia porcellus worked out at 0.0075 mg/kg. Also, the IC50 in the assay filed under Homo sapiens is 600 nM.
Take `O=C(O)CC/C=C\C[C@@H]1CN(S(=O)(=O)c2ccc(Cl)cc2)C[C@@H]1c1ccccc1O`: the Kb in assay [1] is 1 nM. For the same molecule, the ED50 in the assay on Cavia porcellus stood at 0.03 mg/kg. The IC50 in the assay listed under Homo sapiens was determined as 4700 nM.
On to `CC(C)C(=O)N1C[C@@H](C/C=C\CCC(=O)O)[C@@H](c2ccccc2O)C1`, for which the ED50 in the assay with Cavia porcellus was 0.11 mg/kg.
Regarding `O=C(O)CCC/C=C\C[C@@H]1CN(S(=O)(=O)c2cccc3ccccc23)C[C@@H]1c1ccccc1O`, the Kb in assay [1] is 6.31 nM. Besides, the ED50 in the assay on Cavia porcellus was 0.08 mg/kg. Besides, in the assay listed under Homo sapiens, the half-inhibitory concentration (IC50) amounted to 3600 nM.
As for `O=C(O)CC/C=C\C[C@@H]1CN(Cc2cccnc2)C[C@@H]1c1ccccc1O`, the ED50 in the assay with Cavia porcellus stood at 1 mg/kg.
`O=C(O)CC/C=C\C[C@@H]1CN(S(=O)(=O)c2cccc3cnccc23)C[C@@H]1c1ccccc1O`: in the assay on Cavia porcellus, the ED50 turned out to be 0.011 mg/kg. This molecule also gave an IC50 in the assay listed under Homo sapiens of 1300 nM.
For `O=C(O)CC/C=C\C[C@@H]1CO[C@H](c2ccccc2Cl)O[C@@H]1c1ccccc1O`, the ED50 with Cavia porcellus worked out at 0.0007 mg/kg.
Turning to `O=C(O)CC/C=C\C[C@@H]1CN(S(=O)(=O)c2cccc3cnccc23)C[C@H]1c1ccccc1O`, the ED50 with Cavia porcellus amounted to 0.056 mg/kg.
As to `CCCCCCC(=O)N1C[C@@H](C/C=C\CCC(=O)O)[C@@H](c2ccccc2O)C1`, the ED50 in the assay on Cavia porcellus came out at 0.43 mg/kg.
With `O=C(O)CC/C=C\C[C@@H]1CN(Cc2ccccc2)C[C@@H]1c1ccccc1O`, in assay [1], the Kb is 251 nM. In addition, the ED50 in the assay with Cavia porcellus was determined as 0.17 mg/kg.
The matching figures for `O=C(O)CC/C=C\C[C@@H]1CN(S(=O)(=O)c2ccc(Cl)cc2)C[C@H]1c1ccccc1O`: 12.6 nM and 0.12 mg/kg.
For the molecule `O=C(O)CC/C=C\C[C@@H]1CN(S(=O)(=O)c2cccc3cccnc23)C[C@@H]1c1ccccc1O`, the ED50 in the assay on Cavia porcellus is 0.025 mg/kg. The molecule also came in with a half-maximal inhibitory concentration (IC50) in the assay listed under Homo sapiens of 3000 nM.
